According to ChEMBL document CHEMBL5303304, “EUbOPEN Chemogenomics Library - IncuCyte” (2023):

Experiments:
Type in all cases: toxicity, cell-based
HEK-293T = assay: Incucyte cell viability with HEK293T; conditions: human, 10 µM, compound concentration 10 uM
U2OS = assay: Incucyte cell viability with U2OS; conditions: human, 10 µM, compound concentration 10 uM
Fibroblast = assay: Incucyte cell viability with human fibroblast; conditions: 10 µM, compound concentration 10 uM
Further: unitless GR value; below 1 slowed growth and below 0 cell loss.

| SMILES | Growth Rate (HEK-293T; 6 h, replicate number 2) | Growth Rate (HEK-293T; 12 h, replicate number 2) | Growth Rate (HEK-293T; 18 h, replicate number 2) | Growth Rate (HEK-293T; 24 h, replicate number 2) | Growth Rate (U2OS; 0 h, replicate number 1) | Growth Rate (U2OS; 6 h, replicate number 1) | Growth Rate (U2OS; 12 h, replicate number 1) | Growth Rate (U2OS; 24 h, replicate number 1) | Growth Rate (Fibroblast; 6 h, replicate number 1) | Growth Rate (Fibroblast; 6 h, replicate number 2) | Growth Rate (Fibroblast; 12 h, replicate number 1) | Growth Rate (Fibroblast; 12 h, replicate number 2) | Growth Rate (Fibroblast; 18 h, replicate number 1) | Growth Rate (Fibroblast; 18 h, replicate number 2) | Growth Rate (Fibroblast; 24 h, replicate number 2) | Growth Rate (HEK-293T; 12 h, replicate number 1) | Growth Rate (U2OS; 6 h, replicate number 2) | Growth Rate (U2OS; 12 h, replicate number 2) | Growth Rate (U2OS; 18 h, replicate number 2) | Growth Rate (U2OS; 24 h, replicate number 2) | other results |
| --- | --- | --- | --- | --- | --- | --- | --- | --- | --- | --- | --- | --- | --- | --- | --- | --- | --- | --- | --- | --- | --- |
| CCOC(=O)Nc1ccc2c(c1)N(C(=O)CN(CC)CC)c1ccccc1CC2 | 0.81 | 0.9 | 0.97 | 0.92 | 0.1 | 0.94 | 0.75 | 0.89 | 0.29 | 0.43 | 0.64 | 0.75 | 0.61 | 0.53 | 0.69 |  |  |  |  |  | Growth Rate (HEK-293T; 0 h, replicate number 1): 0.65; Growth Rate (Fibroblast; 0 h, replicate number 2): 0.9; Growth Rate (Fibroblast; 24 h, replicate number 1): 0.76 |
| COc1cc(C(=O)N2CC[C@@H](O)[C@@H](N)C2)cc2nc(-c3cc4ccccc4n3CC3CC3)n(C)c12.Cl | -0.12 | 0.39 | 0.3 | 0.27 | -0.93 |  |  |  | -1 | -0.02 |  | 0.16 |  | 0.2 | 0.27 | 0.73 |  |  |  |  | Growth Rate (HEK-293T; 6 h, replicate number 1): 0.46; Growth Rate (HEK-293T; 18 h, replicate number 1): 0.82; Growth Rate (HEK-293T; 24 h, replicate number 1): 0.58 |
| COc1ccc(CSc2nnc(-c3ccc4ncsc4c3)o2)cc1C(F)(F)F | 0.47 | 0.75 | 0.76 | 0.76 | -0.97 | -0.59 |  |  | 0.92 | 0.49 | 0.88 | 0.64 | 0.68 | 0.71 | 0.84 |  | 0.78 | 0.87 | -0.67 | 0.95 | Growth Rate (HEK-293T; 24 h, replicate number 1): 0.95; Growth Rate (U2OS; 0 h, replicate number 2): 0.81; Growth Rate (Fibroblast; 0 h, replicate number 1): -1; Growth Rate (Fibroblast; 24 h, replicate number 1): 0.64 |
| Cc1cccc(F)c1C(=O)Nc1cnc(-c2cc3c(cc2Cl)OC(F)(F)O3)cn1 [ZEGOCRACTIN] | -0.48 | -0.06 | 0.31 |  | 0.13 | 0.26 | 0.45 | 0.8 |  | -0.57 | -0.81 | 0.2 | 0.77 | 0.4 | 0.26 | 0.19 | 0.28 | 0.78 | 0.9 | 0.92 | Growth Rate (HEK-293T; 6 h, replicate number 1): -0.06; Growth Rate (HEK-293T; 18 h, replicate number 1): 0.24; Growth Rate (HEK-293T; 24 h, replicate number 1): 0.34; Growth Rate (U2OS; 0 h, replicate number 2): -0.79; Growth Rate (U2OS; 18 h, replicate number 1): 0.72; Growth Rate (Fibroblast; 0 h, replicate number 2): -0.42; Growth Rate (Fibroblast; 24 h, replicate number 1): 0.84 |
| Cc1cc(-c2ccnc(Nc3cnn(C)c3)n2)ccc1CNC(=O)N1CC(OC(C)C)C1 |  |  |  |  |  | 0.99 | 0.8 | 0.89 | 0.47 |  |  |  | 0.97 |  |  | 0.72 | 0.93 |  |  |  | Growth Rate (HEK-293T; 6 h, replicate number 1): 0.37; Growth Rate (HEK-293T; 18 h, replicate number 1): 0.79; Growth Rate (HEK-293T; 24 h, replicate number 1): 0.98; Growth Rate (U2OS; 18 h, replicate number 1): 0.98; Growth Rate (Fibroblast; 0 h, replicate number 2): -0.87; Growth Rate (Fibroblast; 24 h, replicate number 1): 0.75 |
| CCN1CCN(Cc2ccc(Nc3ncc(F)c(-c4cc(F)c5nc(C)n(C(C)C)c5c4)n3)nc2)CC1.CS(=O)(=O)O | 0.64 | 0.38 | 0.6 | 0.76 |  |  |  |  | 0.33 |  | -1 | 0.98 |  |  |  | 0.36 |  | 0.97 | 0.98 | 1 | Growth Rate (HEK-293T; 0 h, replicate number 1): -0.17; Growth Rate (HEK-293T; 0 h, replicate number 2): 0.21; Growth Rate (Fibroblast; 0 h, replicate number 1): 0.5 |
| CN(CC(=O)Nc1ccc(F)c(F)c1F)C(=O)c1ccc2c(c1)OCCO2 |  |  |  |  | -0.71 | 0.07 | 0.45 | 0.95 |  | 0.54 |  | 0.55 | 0.79 | 0.78 | 0.87 | 0.74 |  |  |  |  | Growth Rate (HEK-293T; 6 h, replicate number 1): 0.37; Growth Rate (HEK-293T; 18 h, replicate number 1): 0.93; Growth Rate (U2OS; 18 h, replicate number 1): 0.76 |
| CCCCCNC(=O)N1CCC(CN(Cc2ccc(Cl)cc2)Cc2ccc([N+](=O)[O-])s2)C1 (configuration not stated) [SR9011] | 0.86 | 0.62 | 0.59 | 0.49 | 0.35 | 0.88 | 0.81 | 0.85 | 0.11 | -0.29 | 0.48 | 0.55 | 0.55 | 0.66 | 0.64 | 0.42 | 0.94 | 0.86 | 0.94 | 0.83 | Growth Rate (HEK-293T; 0 h, replicate number 2): -0.74; Growth Rate (HEK-293T; 6 h, replicate number 1): 0.47; Growth Rate (HEK-293T; 18 h, replicate number 1): 0.51; Growth Rate (HEK-293T; 24 h, replicate number 1): 0.54; Growth Rate (U2OS; 18 h, replicate number 1): 0.9; Growth Rate (Fibroblast; 24 h, replicate number 1): 0.54 |
| Cc1nc2ccccc2c(-c2ccc3c4c(ccnc24)CCO3)c1[C@H](OC(C)(C)C)C(=O)O [BI-224436] |  |  |  |  |  | 0.57 | 0.77 |  |  |  |  | 0.76 |  |  |  |  | 0.42 | 0.72 | 0.85 | 0.75 | Growth Rate (HEK-293T; 0 h, replicate number 1): 0.67; Growth Rate (HEK-293T; 0 h, replicate number 2): 0.86; Growth Rate (U2OS; 0 h, replicate number 2): -0.37 |
| COc1cc(C(=O)NC2CCN(C)CC2)ccc1Nc1ncc2c(n1)N(C1CCCC1)CC(F)(F)C(=O)N2C | -0.29 | -0.06 | -0.2 | -0.23 | -0.99 | 0.46 | 0.23 | 0.2 |  |  | 0.51 | 0.72 | 0.36 | 0.45 | 0.42 | 0.86 | 0.18 | -0.13 | -0.08 | -0.03 | Growth Rate (HEK-293T; 6 h, replicate number 1): 0.85; Growth Rate (HEK-293T; 18 h, replicate number 1): 0.53; Growth Rate (HEK-293T; 24 h, replicate number 1): 0.26; Growth Rate (U2OS; 0 h, replicate number 2): 0.71; Growth Rate (U2OS; 18 h, replicate number 1): 0.12; Growth Rate (Fibroblast; 24 h, replicate number 1): 0.28 |
| NCc1ccc(OCCCc2sc(-c3ccc4c(c3)/C(=N/Nc3nc5ccccc5s3)CCC4)nc2C(=O)O)cc1 |  |  |  |  | 0.77 | 0.23 | 0.44 | 0.58 | 0.94 |  |  |  |  |  |  |  |  | 0.7 | 0.72 | 0.74 | Growth Rate (HEK-293T; 0 h, replicate number 1): 0.54; Growth Rate (HEK-293T; 0 h, replicate number 2): -0.79; Growth Rate (U2OS; 18 h, replicate number 1): 0.63; Growth Rate (Fibroblast; 0 h, replicate number 2): -0.83 |
| O=C(Nc1ccc(OC(F)(F)Cl)cc1)c1cnc(N2CC[C@@H](O)C2)c(-c2ccn[nH]2)c1 [ASCIMINIB] | -0.37 | -0.17 | 0.07 | 0.19 |  |  |  | 0.95 | 0.15 | -0.75 | 0.06 | 0.12 | 0.17 | 0.46 | 0.63 | -0.32 |  | 0.61 | 0.82 |  | Growth Rate (HEK-293T; 6 h, replicate number 1): -0.71; Growth Rate (HEK-293T; 18 h, replicate number 1): -0.06; Growth Rate (HEK-293T; 24 h, replicate number 1): 0.02; Growth Rate (U2OS; 0 h, replicate number 2): 0.44; Growth Rate (Fibroblast; 0 h, replicate number 1): -1; Growth Rate (Fibroblast; 0 h, replicate number 2): 0.89; Growth Rate (Fibroblast; 24 h, replicate number 1): 0.35 |
| CCCS(=O)(=O)Nc1ccc(F)c(Nc2ncnc3cnc(-n4cnc(C)c4)nc23)c1F | 0.5 | 0.72 | 0.73 | 0.8 |  | 0.75 | 0.7 | 0.97 | 0.75 | 0.4 | 0.52 | 0.62 | 0.53 | 0.69 | 0.77 | 0.77 | 0.61 | 0.63 | 0.84 | 0.67 | Growth Rate (HEK-293T; 0 h, replicate number 1): -0.79; Growth Rate (HEK-293T; 18 h, replicate number 1): 0.75; Growth Rate (HEK-293T; 24 h, replicate number 1): 0.71; Growth Rate (U2OS; 18 h, replicate number 1): 0.78; Growth Rate (Fibroblast; 0 h, replicate number 1): -0.99; Growth Rate (Fibroblast; 24 h, replicate number 1): 0.53 |
| O=C(Nc1cc(C(F)(F)F)ccc1N1CCCCC1)c1ccncc1 | 0.49 |  |  |  | 0.2 |  |  |  |  | 0.12 |  | 0.6 |  | 0.93 | 0.9 |  | 0.58 |  |  |  | Growth Rate (Fibroblast; 0 h, replicate number 2): -0.43 |
| Cc1csc(S(=O)(=O)N(CC(C)C)c2cc3c(cc2OCc2ccc(C(=O)O)cc2)CCC3)n1 |  |  |  |  |  |  |  | 0.99 | 0.68 | 0.06 |  | 0.69 |  |  |  |  | 0.87 | 0.88 | 0.83 | 0.86 | Growth Rate (HEK-293T; 0 h, replicate number 1): -0.23; Growth Rate (HEK-293T; 0 h, replicate number 2): -0.11; Growth Rate (U2OS; 18 h, replicate number 1): 0.99; Growth Rate (Fibroblast; 0 h, replicate number 2): -0.95 |
